Like-named read-outs stand apart in the source and are kept apart here.
Assays:
hMPV [1] = test: Ribavirin as a prophylactic: hMPV infected Vero cells counted by immune fluorescence; assay type: cell-based, Human Metapneumovirus; settings: for reduction in number of infected cells: pre-incubation 2 h before infection, 100 TCID50 hMPV, day 1 post-infection, Vero cells
Procedure: (§1) Vero cells (African green monkey kidney cells) were maintained and passaged in Iscove's Modified Dulbecco's Medium (IMDM) containing L-glutamine (2 mM), penicillin (100 U/ml), streptomycin (100 μg/ml) and 10% fetal calf serum (FCS) and incubated in a humidified atmosphere at 37° C. Virus infection medium contained bovine serum albumin (BSA; 0.3%) and trypsin (2.5×10^−4%) instead of FCS. Human Metapneumovirus stocks were prepared by inoculating Vero cells with hMPV, and harvesting 7-10 days post-infection, when there were visible cytopathic effects. The virus was stored at −70° C. and titrated by end point dilution on Vero cells.
One day prior to infection, the cells were seeded in 24 well plates at 30-40% confluency, and incubated overnight at 37° C. The next day, cells were pre-incubated with fresh medium containing 0, 5, 25 or 50 μg/ml of Ribavirin for 2 hours prior to virus infection. Following this pre-incubation, cells were infected with 10 or 100 TCID50 (tissue culture infectious doses) of hMPV, in the continuing presence of Ribavirin. After 2 hours, the virus inoculum was washed off and fresh medium containing Ribavirin was put onto the cells.
(§2) The plates were incubated at 37° C. for 1 or 3 days. Medium was refreshed every second day and Ribavirin was maintained in the medium at all times at the appropriate concentration. After the indicated incubation period, medium was removed, the cells were washed with PBS and cells were fixed with 80% acetone. Staining for immune fluorescence analysis was performed by incubating infected cells with guinea pig anti-hMPV serum in PBS for 1 hour, followed by a FITC-labeled rabbit anti-guinea pig polyclonal antibody preparation (DAKO) in PBS for 1 hour. Background staining was finally performed with eriochrome black before analysis under an immune fluorescence microscope. Infected cells were counted in 5 fields under high power magnification (320×). Results are presented as the total number of infected cells counted in these 5 fields

hMPV strain NL/01/00 = test: Inhibition of hMPV by Ribavirin and neutralizing antibodies in Vero cells (immunofluorescence, estimated percentages of infected cells); assay type: cell-based, Human Metapneumovirus
Procedure: Passaging and seeding Vero cells (clone 118) was done in standard DMEM medium, supplemented with 10% FCS, L-glutamin and antibiotics (penicillin and streptomycin). Cells were seeded approximately 1:4 in 48 wells plates, so that cells would be ±75% confluent the next day. Infecting cells was done in IMDM medium with […], Pen/Strep and L-glutamin.
[…]. Plates were finally spun at 1500 g for 5 minutes and incubated at 37C in a humidified atmosphere for 3 days. After 3 days, from duplicate wells of each experimental condition the cells and supernatant were harvested and frozen at −70 C. Aliquots from these virus cultures were used for RNA isolation and subsequent quantification of viral genomic copy numbers by real-time RT-PCR on a TAQMAN® machine. The other duplicate wells from each experimental condition were stained for hMPV by immunofluorescence and numbers of infected cells were counted under a fluorescence microscope. Briefly, cells were washed with PBS and fixed with 80% acetone, washed again and subsequently incubated with a guinea pig anti-hMPV serum. After removal of the antiserum, cells were incubated with a FITC-labeled rabbit-anti-guinea pig polyclonal antibody preparation, washed and analyzed.
Note: Indicated results are estimated percentages of infected cells. Viral genomic copy numbers remain to be determined by taqman analyses (to be done this week)

hMPV [2] = test: Ribavirin as a therapeutic (added post-infection): hMPV infected Vero cells counted by immune fluorescence; assay type: cell-based, Human Metapneumovirus; settings: for inhibition at 25 µg/mL: human metapneumovirus, Vero, read-out: inhibition of viral replication
Procedure: Percentage of cells infected with hMPV. Cells were infected with 30 TCID50 of hMPV and after 0, 2, 4, 8 and 16 hours, post-infection, 0, 5, 10, 25, 50 or 100 microgram of Ribavirin was added. Three days post-infection, cells were fixed and stained with a hMPV-specific polyclonal antibody, and the number of hMPV positive and negative cells were counted in 5 fields.
as §1
Cells were seeded in 24 well plates as described above. The next day, cells were inoculated with 10 or 100 TCID50 of hMPV in the absence of Ribavirin. Two hours post-infection, the supernatant was aspirated and the cells were washed in phosphate-buffered saline (PBS) to remove virus inoculum. Fresh medium was added and the cells were incubated at 37° C. At different time points (2, 4, 8 and 16 hours) after infection, Ribavirin was added to the cells to reach concentrations of 0, 5, 25 or 50 μg/ml.
as §2

PIV type 3 (PIV3) = settings: cited from earlier work

SMILES: NC(=O)c1ncn([C@@H]2O[C@H](CO)[C@@H](O)[C@H]2O)n1 [Ribavirin]
- reduction in number of infected cells (hMPV [1]; 25 μg/ml Ribavirin): approximately 50%
- decrease in the number of infected cells (hMPV [1]; 50 μg/ml Ribavirin added 2 hrs prior to or at the same time as virus infection): up to 95%
- reduction in number of infected cells (hMPV [1]; 50 μg/ml Ribavirin): approximately 95%
- effect on number of infected cells compared with day 1 (hMPV [1]; day 3 after infection, cells infected with 10 or 100 TCID50): same effect
- effect on the growth of hMPV in vero cells in vitro (hMPV strain NL/01/00; FIG. 3, 50 or 250 TCID50): profound effect
- inhibition at 25 µg/mL (hMPV strain NL/01/00; human metapneumovirus, Vero, 72 h, read-out: inhibition of viral proliferation): ~90%
- inhibition of viral replication (hMPV [2]; Ribavirin 25 μg/ml added after 16 hrs, read 3 days post-infection): insignificantly
- reduction of infection (hMPV [2]; Ribavirin 100 μg/ml added 8 hrs post-infection, read 3 days post-infection): 80%
- reduction of infection (hMPV [2]; Ribavirin 100 μg/ml added 16 hrs post-infection, read 3 days post-infection): 50%
- reduction of infection (hMPV [2]; Ribavirin 100 μg/ml added at 0, 2 or 4 hours post-infection, read 3 days post-infection): 95%
- percentage of MPV-positive cells (hMPV [2]; Ribavirin 25 microgram/ml or higher, added 0-16 hours after infection, 3 days post-infection): greatly reduced
- concentration of Ribavirin needed to see a significant effect (hMPV [2]; added 8 or 16 hrs post-infection): 100 µg/mL
- inhibition at 25 µg/mL (hMPV [2]; Ribavirin 25 μg/ml added 4 or 8 hrs post-infection, read 3 days post-infection): 10%
- inhibition at 25 µg/mL (hMPV [2]; Ribavirin 25 μg/ml added at 0 or 2 hrs post-infection, read 3 days post-infection): 50%
- improvement in outcome (PIV type 3 (PIV3); Elizaga et al.: 18 of 24 PIV3 patients treated, starting three days after onset of symptoms): no improvement in outcome was observed
- viral shedding of treated and untreated patients (PIV type 3 (PIV3); Nichols et al.: 31 of 55 patients with PIV3 pneumonia treated within 48 hours of diagnosis): similar
